This is an account of results in US20260184662A1, “COMPOSITE OF ACID AND SALT, AND PREPARATION METHOD THEREFOR” (NANJING NUTRABUILDING BIO-TECH CO., LTD., priority 2022, published 2026).

The nature of the first data set: Determination of moisture contents with KF moisture meter at different time points. To be noted: temperature 23° C., humidity 92.5%, 30 min. It is filed as physicochemical. An excerpt:
For R-3-hydroxybutyric acid, potassium R-3-hydroxybutyrate, mixture of R-3-hydroxybutyric acid and potassium R-3-hydroxybutyrate, and R-3-hydroxybutyric acid·potassium R-3-hydroxybutyrate complex of Example 1, under a certain condition, KF moisture meter was used to determine the moisture contents at different time points.
For 3-hydroxybutyric acid, potassium 3-hydroxybutyrate, mixture of 3-hydroxybutyric acid and potassium 3-hydroxybutyrate, and 3-hydroxybutyric acid·potassium 3-hydroxybutyrate complex of Example 7, under a certain condition, KF moisture meter was used to determine the moisture contents at different time points.
For S-3-hydroxybutyric acid, potassium S-3-hydroxybutyrate, mixture of S-3-hydroxybutyric acid and potassium S-3-hydroxybutyrate, and S-3-hydroxybutyric acid·potassium S-3-hydroxybutyrate complex of Example 13, under a certain condition, KF moisture meter was used to determine the moisture contents at different time points.
For R-3-hydroxybutyric acid, calcium R-3-hydroxybutyrate, mixture of R-3-hydroxybutyric acid and calcium R-3-hydroxybutyrate, and R-3-hydroxybutyric acid·calcium R-3-hydroxybutyrate complex of Example 19, under a certain condition, KF moisture meter was used to determine the moisture contents at different time points.
For 3-hydroxybutyric acid, calcium 3-hydroxybutyrate, mixture of 3-hydroxybutyric acid and calcium 3-hydroxybutyrate, and 3-hydroxybutyric acid·calcium 3-hydroxybutyrate complex of Example 25, under a certain condition, KF moisture meter was used to determine the moisture contents at different time points.
For S-3-hydroxybutyric acid, calcium S-3-hydroxybutyrate, mixture of S-3-hydroxybutyric acid and calcium S-3-hydroxybutyrate, and S-3-hydroxybutyric acid·calcium S-3-hydroxybutyrate complex of Example 31, under a certain condition, KF moisture meter was used to determine the moisture contents at different time points.
For R-3-hydroxybutyric acid, magnesium R-3-hydroxybutyrate, mixture of R-3-hydroxybutyric acid and magnesium R-3-hydroxybutyrate, and R-3-hydroxybutyric acid·magnesium R-3-hydroxybutyrate complex of Example 37, under a certain condition, KF moisture meter was used to determine the moisture contents at different time points.
For 3-hydroxybutyric acid, magnesium 3-hydroxybutyrate, mixture of 3-hydroxybutyric acid and magnesium 3-hydroxybutyrate, and 3-hydroxybutyric acid·magnesium 3-hydroxy butyrate complex of Example 43, under a certain condition, KF moisture meter was used to determine the moisture contents at different time points.
For S-3-hydroxybutyric acid, magnesium S-3-hydroxybutyrate, mixture of S-3-hydroxybutyric acid and magnesium S-3-hydroxybutyrate, and S-3-hydroxybutyric acid·magnesium S-3-hydroxybutyrate complex of Example 49, under a certain condition, KF moisture meter was used to determine the moisture contents at different time points.
For R-3-hydroxypentanoic acid, sodium R-3-hydroxypentanoate, mixture of R-3-hydroxypentanoic acid and sodium R-3-hydroxypentanoate, and R-3-hydroxypentanoic acid·sodium R-3-hydroxypentanoate complex of Example 55, under a certain condition, KF moisture meter was used to determine the moisture contents at different time points.
For 3-hydroxypentanoic acid, sodium 3-hydroxypentanoate, mixture of 3-hydroxypentanoic acid and sodium 3-hydroxypentanoate, and 3-hydroxypentanoic acid·sodium 3-hydroxypentanoate complex of Example 61, under a certain condition, KF moisture meter was used to determine the moisture contents at different time points.
For S-3-hydroxypentanoic acid, sodium S-3-hydroxypentanoate, mixture of S-3-hydroxypentanoic acid and sodium S-3-hydroxypentanoate, and S-3-hydroxypentanoic acid·sodium S-3-hydroxypentanoate complex of Example 67, under a certain condition, KF moisture meter was used to determine the moisture contents at different time points.
Take `CC(O)CC(=O)[O-].[K+]` (stereo not drawn) [Potassium 3-hydroxybutyrate, potassium 3-hydroxybutyrate]: the “moisture content (%)” value is reported as 1.14%.
As to `C[C@@H](O)CC(=O)[O-].[K+]` [Potassium R-3-hydroxybutyrate, potassium R-3-hydroxybutyrate], the “moisture content (%)” value was 1.04%.
Consider `C[C@H](O)CC(=O)[O-].[K+]` [Potassium S-3-hydroxybutyrate, potassium S-3-hydroxybutyrate], for which the “moisture content (%)” value came to 1.06%.
Same read-out and setting: under `C[C@@H](O)CC(=O)O` [R-3-hydroxybutyric acid] stands 1.13%.
On the same count and under the same terms, then `CC[C@@H](O)CC(=O)O` [R-3-hydroxypentanoic acid], with 0.94%; and `CC[C@H](O)CC(=O)O` [S-3-hydroxypentanoic acid], with 1.03%.

Staying with this data set, now noted: temperature 23° C., humidity 92.5%, 1 h.
For `CC(O)CC(=O)[O-].[K+]` (stereo not drawn) [Potassium 3-hydroxybutyrate, potassium 3-hydroxybutyrate], the “moisture content (%)” value is 1.93%.
The same measure, in the same setting: then `C[C@@H](O)CC(=O)[O-].[K+]` [Potassium R-3-hydroxybutyrate, potassium R-3-hydroxybutyrate], with 1.91%; and `C[C@H](O)CC(=O)[O-].[K+]` [Potassium S-3-hydroxybutyrate, potassium S-3-hydroxybutyrate], with 1.92%.
Still for that read-out and setting: under `C[C@@H](O)CC(=O)O` [R-3-hydroxybutyric acid] stands 2.25%; under `CC[C@@H](O)CC(=O)O` [R-3-hydroxypentanoic acid], 1.88%.
Same read-out and setting: under `CC[C@H](O)CC(=O)O` [S-3-hydroxypentanoic acid] stands 1.90%.

The data set is the same for the next values; noted with them: temperature 23° C., humidity 92.5%, 2 h.
With `CC(O)CC(=O)[O-].[K+]` (stereo not drawn) [Potassium 3-hydroxybutyrate, potassium 3-hydroxybutyrate], the “moisture content (%)” value was found to be 3.22%.
Still for that read-out and setting: then `C[C@@H](O)CC(=O)[O-].[K+]` [Potassium R-3-hydroxybutyrate, potassium R-3-hydroxybutyrate], with 3.19%; and `C[C@H](O)CC(=O)[O-].[K+]` [Potassium S-3-hydroxybutyrate, potassium S-3-hydroxybutyrate], with 3.22%.
`C[C@@H](O)CC(=O)O` [R-3-hydroxybutyric acid]: the “moisture content (%)” value stood at 3.96%.
Same read-out and setting: under `CC[C@@H](O)CC(=O)O` [R-3-hydroxypentanoic acid] stands 3.30%.
Turning to `CC[C@H](O)CC(=O)O` [S-3-hydroxypentanoic acid], the “moisture content (%)” value turned out to be 3.38%.

Still in this data set, the particulars now being: temperature 23° C., humidity 92.5%, 4 h.
As for `CC(O)CC(=O)[O-].[K+]` (stereo not drawn) [Potassium 3-hydroxybutyrate, potassium 3-hydroxybutyrate], the “moisture content (%)” value was found to be 4.98%.
The same measure, in the same setting: then `C[C@@H](O)CC(=O)[O-].[K+]` [Potassium R-3-hydroxybutyrate, potassium R-3-hydroxybutyrate], with 4.93%.
With `C[C@H](O)CC(=O)[O-].[K+]` [Potassium S-3-hydroxybutyrate, potassium S-3-hydroxybutyrate], the “moisture content (%)” value came to 4.97%.
On the same count and under the same terms, under `C[C@@H](O)CC(=O)O` [R-3-hydroxybutyric acid] stands 6.46%; under `CC[C@@H](O)CC(=O)O` [R-3-hydroxypentanoic acid], 5.38%; under `CC[C@H](O)CC(=O)O` [S-3-hydroxypentanoic acid], 5.27%.

Staying with this data set, now noted: temperature 23° C., humidity 92.5%, 6 h.
With `CC(O)CC(=O)[O-].[K+]` (stereo not drawn) [Potassium 3-hydroxybutyrate, potassium 3-hydroxybutyrate], the “moisture content (%)” value turned out to be 7.77%.
`C[C@@H](O)CC(=O)[O-].[K+]` [Potassium R-3-hydroxybutyrate, potassium R-3-hydroxybutyrate]: the “moisture content (%)” value is 7.65%.
As to `C[C@H](O)CC(=O)[O-].[K+]` [Potassium S-3-hydroxybutyrate, potassium S-3-hydroxybutyrate], the “moisture content (%)” value turned out to be 7.55%.
On the same count and under the same terms, under `C[C@@H](O)CC(=O)O` [R-3-hydroxybutyric acid] stands 9.52%; under `CC[C@@H](O)CC(=O)O` [R-3-hydroxypentanoic acid], 7.93%; under `CC[C@H](O)CC(=O)O` [S-3-hydroxypentanoic acid], 7.94%.

Staying with this data set, now noted: temperature 23° C., humidity 92.5%, 7 h.
As for `CC(O)CC(=O)[O-].[K+]` (stereo not drawn) [Potassium 3-hydroxybutyrate, potassium 3-hydroxybutyrate], the “moisture content (%)” value was 8.34%.
Still for that read-out and setting: under `C[C@@H](O)CC(=O)[O-].[K+]` [Potassium R-3-hydroxybutyrate, potassium R-3-hydroxybutyrate] stands 8.24%; under `C[C@H](O)CC(=O)[O-].[K+]` [Potassium S-3-hydroxybutyrate, potassium S-3-hydroxybutyrate], 8.34%; under `C[C@@H](O)CC(=O)O` [R-3-hydroxybutyric acid], 10.56%.
On the same count and under the same terms, then `CC[C@@H](O)CC(=O)O` [R-3-hydroxypentanoic acid], with 8.80%; and `CC[C@H](O)CC(=O)O` [S-3-hydroxypentanoic acid], with 8.85%.

Still in this data set, the particulars now being: temperature 23° C., humidity 92.5%, 11 h.
For `CC(O)CC(=O)[O-].[K+]` (stereo not drawn) [Potassium 3-hydroxybutyrate, potassium 3-hydroxybutyrate], the “moisture content (%)” value came to 16.82%.
Same read-out and setting: under `C[C@@H](O)CC(=O)[O-].[K+]` [Potassium R-3-hydroxybutyrate, potassium R-3-hydroxybutyrate] stands 16.72%.
The same measure, in the same setting: under `C[C@H](O)CC(=O)[O-].[K+]` [Potassium S-3-hydroxybutyrate, potassium S-3-hydroxybutyrate] stands 16.82%; under `C[C@@H](O)CC(=O)O` [R-3-hydroxybutyric acid], 17.22%; under `CC[C@@H](O)CC(=O)O` [R-3-hydroxypentanoic acid], 14.35%.
Still for that read-out and setting: then `CC[C@H](O)CC(=O)O` [S-3-hydroxypentanoic acid], with 14.23%.

Still in this data set, the particulars now being: temperature 23° C., humidity 92.5%, 22 h.
In the case of `CC(O)CC(=O)[O-].[K+]` (stereo not drawn) [Potassium 3-hydroxybutyrate, potassium 3-hydroxybutyrate], the “moisture content (%)” value turned out to be 32.86%.
As for `C[C@@H](O)CC(=O)[O-].[K+]` [Potassium R-3-hydroxybutyrate, potassium R-3-hydroxybutyrate], the “moisture content (%)” value is 32.68%.
Same read-out and setting: under `C[C@H](O)CC(=O)[O-].[K+]` [Potassium S-3-hydroxybutyrate, potassium S-3-hydroxybutyrate] stands 32.75%.
Same read-out and setting: under `C[C@@H](O)CC(=O)O` [R-3-hydroxybutyric acid] stands 33.34%.
`CC[C@@H](O)CC(=O)O` [R-3-hydroxypentanoic acid]: the “moisture content (%)” value is 27.78%.
Turning to `CC[C@H](O)CC(=O)O` [S-3-hydroxypentanoic acid], the “moisture content (%)” value is 27.46%.
